Entries after “also recorded” stand apart in the source; their conditions may differ. Where two headings read alike, the source gives them in different places.
Tests used:
HEK293 cells = assay: Cytotoxicity of LPS to HEK293 cells (Alamar Blue cell viability), with or without AGP; type: cell-based; settings: LPS 100 μg/mL, AGP 0-1 mg/mL
Procedure: HEK293 cell line was purchased from American Type Culture Collection (ATCC). The cells were cultured in DMEM (Invitrogen, Australia) containing 10% fetal bovine serum at 37°C, 5% CO2. Serum-free media were used in cytotoxicity assays. Cytotoxicity of LPS to HEK293 cells was determined using Alamar Blue cell viability reagent (Invitrogen, Australia). In brief, HEK293 cells were seeded as 2 × 10^4 cells per well in a clear 96-well plate and incubated for 24 hr at 37°C, 5% CO2. Then the media were replaced with serum-free media, which contained AGP and LPS (100 μg/mL). After a 24 hr incubation, 10 μL of Alamar Blue reagent were added per well and incubated at 37°C for 1 hr. Then the fluorescence intensity was read using Polar star Omega with excitation/emission wavelengths of 560/590.

[1] = LPS binding affinity of plasma binding proteins; settings: AGP, this study's SPR data
K. pneumoniae = system: K. pneumoniae; set-up: method as in PMID 10809735; settings: intraperitoneal, 10 mg, 2 h prior to lethal challenge of K. pneumoniae; cited from earlier work
human AGP [2] = assay: SPR assay of AGP binding to lipid A/Kdo2-lipid A in DMPC hybrid SUV bilayer (L1 chip); settings: 10% (mol/mol) lipid in DMPC bilayer; Kdo2-lipid A response at AGP concentrations higher than 7 μM
Procedure: In the case of lipid A and Kdo2-lipid A binding, a L1 sensor chip was used (GE Health Care, Melbourne Australia). Small unilamellar vesicles (SUVs) were prepared in PBS by sonication and extrusion. Lipids (DMPC, lipid A, and Kdo2-lipid A) were dissolved in ethanol-free chloroform in 25 mL round-bottom flasks. 10% (mol/mol) of lipid A or Kdo2-lipid A was added into DMPC solution to make 10% lipid A/Kdo2-lipid A-DMPC mixtures, which were then deposited as a thin film by removal of the solvent (chloroform) under reduced pressure on a rotary evaporator and dried under high vacuum for at least 2 hours. PBS was then added into each flask to give a 1 mM suspension, which was sonicated 5 min for 5 times. […] The SUVs were then injected into the flow cells of the L1 sensor chip for 2000 sec at a low flow rate of 2 μL/min to form a bilayer membrane model on the chip surface. Then, a series of AGP solutions was injected across the flow cells at a flow rate of 30 μL/min, having an injection phase of 180 s and a dissociation phase of 300 s. A regeneration step was added before and after every cycle using 40 mM octyl-glucoside, which cleans the chip surface for a new cycle. Pure DMPC bilayer was applied as a reference and all data used in analysis were reference-subtracted.

human AGP [3] = assay: Fluorometric assay of FITC-E. coli O111:B4 LPS binding to AGP; settings: chlorpromazine 20 μM final concentration; FITC-LPS 5 μM, AGP 25 μM
Procedure: […] Fluorescence was measured using a Cary Eclipse Fluorescence spectrophotometer (Varian, Mulgrave, VIC, Australia) set at an excitation wavelength specific for the FITC fluorophore (Exλ 494 nm). Slit widths were set to 5 nm for both the excitation and emission monochromators. The emission spectrum was collected in the 500→650 nm range.

[4] = system: meningococcal endotoxemia mouse model; set-up: method as in PMID 9179623; settings: intraperitoneal, 8 mg, 2 h prior to LPS challenge; cited from earlier work
[5] = set-up: method as in PMID 12887306, PMID 11739189; settings: cited from earlier work

AGP: human α-1-acid glycoprotein from plasma, F1:S:A variants 40:30:30
effect of AGP on the cytotoxic effect of LPS (HEK293 cells): ameliorated in a concentration-dependent manner
LPS binding affinity [1]: high micromolar
survival of mice (K. pneumoniae): increased the survival of mice

CCCCCCCCCCCCCC(=O)O[C@H](CCCCCCCCCCC)CC(=O)O[C@@H]1[C@@H](NC(=O)C[C@@H](CCCCCCCCCCC)OC(=O)CCCCCCCCCCC)[C@H](OC[C@H]2O[C@H](OP(=O)(O)O)[C@H](NC(=O)C[C@H](O)CCCCCCCCCCC)[C@@H](OC(=O)C[C@H](O)CCCCCCCCCCC)[C@@H]2O)O[C@H](CO[C@]2(C(=O)O)C[C@@H](O[C@]3(C(=O)O)C[C@@H](O)[C@@H](O)[C@@H]([C@H](O)CO)O3)[C@@H](O)[C@@H]([C@H](O)CO)O2)[C@H]1OP(=O)(O)O [Kdo2-lipid A]
specific AGP binding to lipid in hybrid SUVs (human AGP [2]): dose-dependent response; also recorded: very weak

CN(C)CCCN1c2ccccc2Sc2ccc(Cl)cc21 [chlorpromazine]
change in fluorescence emission of the FITC-LPS:AGP complex (human AGP [3]): decrease in fluorescence emission

diphosphoryl lipid A
specific AGP binding to lipid in hybrid SUVs (human AGP [2]): no specific AGP binding detected

B1: bovine AGP: bovine α-1-acid glycoprotein (protein, UniProt Q3SZR3 19-202, looked up)
Alpha-1-acid glycoprotein: QSPECANLMTVAPITNATMDLLSGKWFYIGSAFRNPEYNKSARAIQAAFFYLEPRHAEDKLITREYQTIEDKCVYNCSFIKIYRQNGTLSKVESDREHFVDLLLSKHFRTFMLAASWNGTKNVGVSFYADKPEVTQEQKKEFLDVIKCIGIQESEIIYTDEKKDACGPLEKQHEEERKKETEAS
protection against sepsis [4]: protect against sepsis

B2: LBP: lipopolysaccharide-binding protein, LPS-specific plasma binding protein (protein, UniProt P18428 26-481, looked up)
Lipopolysaccharide-binding …: ANPGLVARITDKGLQYAAQEGLLALQSELLRITLPDFTGDLRIPHVGRGRYEFHSLNIHSCELLHSALRPVPGQGLSLSISDSSIRVQGRWKVRKSFFKLQGSFDVSVKGISISVNLLLGSESSGRPTVTASSCSSDIADVEVDMSGDLGWLLNLFHNQIESKFQKVLESRICEMIQKSVSSDLQPYLQTLPVTTEIDSFADIDYSLVEAPRATAQMLEVMFKGEIFHRNHRSPVTLLAAVMSLPEEHNKMVYFAISDYVFNTASLVYHEEGYLNFSITDDMIPPDSNIRLTTKSFRPFVPRLARLYPNMNLELQGSVPSAPLLNFSPGNLSVDPYMEIDAFVLLPSSSKEPVFRLSVATNVSATLTFNTSKITGFLKPGKVKVELKESKVGLFNAELLEALLNYYILNTFYPKFNDKLAEGFPLPLLKRVQLYDLGLQIHKDFLFLGANVQYMRV
LPS binding affinity [5]: nanomolar

B3: BPI: bactericidal/permeability-increasing protein (protein, UniProt P17213 32-487, looked up)
Bactericidal …: VNPGVVVRISQKGLDYASQQGTAALQKELKRIKIPDYSDSFKIKHLGKGHYSFYSMDIREFQLPSSQISMVPNVGLKFSISNANIKISGKWKAQKRFLKMSGNFDLSIEGMSISADLKLGSNPTSGKPTITCSSCSSHINSVHVHISKSKVGWLIQLFHKKIESALRNKMNSQVCEKVTNSVSSELQPYFQTLPVMTKIDSVAGINYGLVAPPATTAETLDVQMKGEFYSENHHNPPPFAPPVMEFPAAHDRMVYLGLSDYFFNTAGLVYQEAGVLKMTLRDDMIPKESKFRLTTKFFGTFLPEVAKKFPNMKIQIHVSASTPPHLSVQPTGLTFYPAVDVQAFAVLPNSSLASLFLIGMHTTGSMEVSAESNRLVGELKLDRLLLELKHSNIGPFPVELLQDIMNYIVPILVLPRVNEKLQKGFPLPTPARVQLYNVVLQPHQNFLLFGADVVYK
LPS binding affinity [5]: nanomolar

From article PMC3539403, “Molecular Characterization of Lipopolysaccharide Binding to Human α-1-Acid Glycoprotein” (Journal of Lipids, 2012)
